According to ChEMBL document CHEMBL1250554, “Design and preparation of sterol mimetics as potential antiparasitics” (Bioorg Med Chem, 2010):

How the values were obtained:
Leishmania donovani = assay: Antiparasitic activity against axenic amastigotes of Leishmania donovani; type: functional, organism-based
[1] = test system: Trypanosoma brucei rhodesiense; assay: Antiparasitic activity against blood stream form of Trypanosoma brucei rhodesiense; type: functional, organism-based
Trypanosoma cruzi = assay: Antiparasitic activity against amastigotes of Trypanosoma cruzi; type: functional, organism-based
[2] = Cytotoxicity against rat L6 cells; type: cell-based; settings: read-out: TD50 (the source's name)

Compound: COC(=O)CCCNCC1CCN(C(=O)Nc2ccc(COC(C)=O)cc2)C1 (centres undefined)
- EC50 (Leishmania donovani): 80 µM
- EC50 [1]: 40 µM
- EC50 (Trypanosoma cruzi): > 230 µM
- CC50 [2]: > 230 µM

Compound: CC(=O)OCc1ccc(NC(=O)N2CCC(CO)C2)cc1 (centres undefined)
- EC50 (Leishmania donovani): 26 µM
- EC50 [1]: 52 µM
- EC50 (Trypanosoma cruzi): > 308 µM
- CC50 [2]: > 308 µM

Compound: CC(=O)OCc1ccc(NC(=O)N2CCC(CN3CCCC3=O)C2)cc1 (centres undefined)
- EC50 (Leishmania donovani): 30 µM
- EC50 [1]: 43 µM
- EC50 (Trypanosoma cruzi): 181 µM
- CC50 [2]: > 250 µM

Compound: COC(=O)CCCNCCc1ccc(NC(=O)c2ccc(COC(C)=O)cc2)cc1
- EC50 (Leishmania donovani): 73 µM
- EC50 [1]: 11.5 µM
- EC50 (Trypanosoma cruzi): 141 µM
- CC50 [2]: > 218 µM

Compound: COC(=O)CCCNCc1ccc(NC(=O)c2ccc(COC(C)=O)cc2)cc1
- EC50 (Leishmania donovani): 2.6 µM
- EC50 [1]: 78 µM
- EC50 (Trypanosoma cruzi): 207 µM
- CC50 [2]: 161 µM

Compound: COC(=O)CCCCCNCC1CCN(C(=O)Nc2ccc(COC(C)=O)cc2)C1 (centres undefined)
- EC50 (Leishmania donovani): 41 µM
- EC50 [1]: 76 µM
- EC50 (Trypanosoma cruzi): > 215 µM
- CC50 [2]: > 214 µM
